From patent US8846711B2, “Heterocyclic acrylamides and their use as pharmaceuticals” (Fab Pharma S.A.S., priority 2009, dated 2014)
Values after ≈ are worked out from the molar mass of the structure shown.

How the values were obtained:
MRSA (IHMA #510059) = assay: MIC determination using susceptibility method (broth microdilution); format: cell-based; conditions: Staphylococcus aureus, read-out: MIC (μg/ml) MRSA (IHMA #510059)
Description: (§1) Minimum inhibitory concentrations (MICs) were determined by broth microdilution according to CLSI guidelines (CLSI, M100-20^1, M7-A8^2, M27-A3^3). The compounds were tested in the range from […]. Colonies were taken directly from a second-pass culture plate and prepared to a suspension equivalent to the 0.5 McFarland standard using normal saline. […] The panels were incubated at 35° C. for 16 to 20 hours before reading the MIC endpoints. The compounds of Examples 12, 29, 59, 63 and 66-71 were dissolved in DMSO to make the initial solutions of 5120 μg/ml. These solutions were diluted 1:10 in sterile water to a stock solution of 512 μg/ml. The stock solutions were further diluted into the appropriate broth medium for the sequential dilutions used in the broth microdilution panels. S. pneumoniae was tested in Mueller Hinton (MH) broth with 3% lysed horse blood and C. albicans was tested in RPMI-1640 medium. All other organisms were tested in MH broth.

S. aureus ATCC 29213 = assay: as above; format: cell-based; conditions: Staphylococcus aureus, ATCC29213, read-out: MIC (μg/ml) S. aureus ATCC 29213
Description: as §1

E. coli (ATCC 25922) = assay: as above; format: cell-based; conditions: Escherichia coli, ATCC25922, read-out: MIC (μg/ml) E. coli (ATCC 25922)
Description: as §1

MSSA (IHMA #555189) = assay: as above; format: cell-based; conditions: Staphylococcus aureus, read-out: MIC (μg/ml) MSSA (IHMA #555189)
Description: as §1

E. faecalis (ATCC 29212) = assay: as above; format: cell-based; conditions: Enterococcus faecalis, ATCC29212, read-out: MIC (μg/ml) E. faecalis (ATCC 29212)
Description: as §1

C. albicans (ATCC 90028) = assay: as above; format: cell-based; conditions: Candida albicans, ATCC90028, read-out: MIC (μg/ml) C. albicans (ATCC 90028)
Description: as §1

[1] = system: S. pneumoniae (ATCC 49619); assay: as above; format: cell-based; conditions: Streptococcus pneumoniae, ATCC49619, read-out: MIC (μg/ml) S. pneumoniae (ATCC 49619)
Description: as §1

[2] = system: Staphylococcus aureus NRS119; assay: MIC determination using agar dilution method; format: cell-based; conditions: MRSA / NRS 119, read-out: MIC (μg/ml) NRS119
Description: (§2) Antibacterial activity was determined on strains from Mutabilis internal collection.
(§3) This protocol is compliant with Clinical Laboratory Standards Institute (CLSI) methodology as described in M7-A7 document of the CLSI. The compound to be tested is incorporated into Mueller-Hinton Agar medium (Fluka, Reference 70191) at one concentration per plate according to a geometric series of reason 2. Plates are inoculated with mid-log phase bacteria (inoculum=1×10^4 cfu/spot) and incubated overnight at 35° C. […] All manipulations, but compound handling (in pure DMSO), are performed under sterile conditions. The final DMSO concentration of DMSO in the plates is 2%. Vancomycin is used as reference.

[3] = system: Staphylococcus aureus NRS269; assay: MIC determination using agar dilution method; format: cell-based; conditions: MRSA / NRS 269, read-out: MIC (μg/ml) NRS269
Description: as §2, §3

[4] = target: recombinant S. aureus FabI enzyme (Staphylococcus aureus (strain MRSA252), UniProt Q6GI75); assay: FabI inhibition, fluorescence based assay; format: biochemical; conditions: in vitro
Description: Compound inhibitory activity of FabI enzyme is measured in vitro by the […] determination using a fluorescence based assay.
The protein FabI from S. aureus is prepared and purified using standard methods for recombinant protein expression after cloning of the gene in a prokaryotic expression vector.
The biochemical activity of the FabI enzyme is assessed using the following method.
The assay buffer “AB” contained 50 mM ADA (N-(2-acetamido)iminodiacetic acid monosodium salt) pH 6.5, 1 mM dithiothreitol, 0.006% Triton-X100 and 50 mM NaCl.
The following components are added in a white polystyrene Costar plate (Ref 3912) up to a final volume of 55.5 μL: 1.5 μL DMSO or inhibitor dissolved in DMSO and 54 μL of a FabI/NADPH/NADP+ mixture in AB. After 60 min of pre-incubation at room temperature, the reaction is started by addition of 5 μL of trans-2-octenoyl N-acetylcysteamine thioester (t-o-NAC) to a final volume of 60.5 μL. This reaction mixture is then composed of 2 nM FabI, 40 μM NADPH (Sigma, N7505), 10 μM NADP+ (Sigma, N5755), 100 μM t-O-NAC and compound at defined concentration. Fluorescence intensity of NADPH (λex=360 nm, […]) is measured immediately after t-O-NAC addition (T0), and approximately 50 min later (T50) by a Fluostar Optima (BMG) so as to achieve ±30% of NADPH conversion. Enzyme activity is calculated by first subtracting TO signal to T50 and then subtracting background signal (FabI=0). Percentages of inhibition are calculated against untreated samples (Inhibitor=0) and IC50 are fitted to a classical Langmuir equilibrium model using XLFIT (IDBS).

[5] = system: Staphylococcus aureus strain ATCC 29213; assay: In vivo antibacterial activity, thigh infection model in neutropenic Swiss mice; conditions: 100 mg/kg orally, 1.5 h after infection, FIG. 1
S. aureus CIP 54.146 = assay: MIC determination using broth microdilution method; format: cell-based; conditions: Staphylococcus aureus, CIP54 / MSSA, read-out: MIC (μg/ml) S. aureus CIP 54.146
Description: The compounds of the invention are useful antibacterial agents having a selective spectrum of activity in vitro against bacterial strains relying on FabI and related targets. […] The activity is presented as Minimum Inhibitory Concentration (MIC) expressed in μg/ml and was determined using broth microdilution or Agar dilution methods.
as §2
This protocol is compliant with Clinical Laboratory Standards Institute (CLSI) methodology as described in M7-A7 document of the CLSI. The compound to be tested is diluted according to a geometric series of reason 2 in pure DMSO. Dilutions are transferred in sterile polystyrene microplates, followed by mid-log phase bacteria in cation-adjusted Muller-Hinton broth (ca-MHB, Fluka, Reference 90922) with a final inoculum of 5×10^5 cfu/ml. Microplates are incubated overnight at 35° C. MIC is defined as the lowest concentration of antimicrobial agent that completely prevents visible bacterial growth. All manipulations, but compound handling (in pure DMSO), are performed under sterile conditions. The final concentration of DMSO in the plates is 2%.

O=C1CCc2cc(/C=C/C(=O)N3CC(OCc4cccs4)C3)cnc2N1 [Example 12, 6-{(1E)-3-Oxo-3-[3-(2-thienylmethoxy)azetidin-1-yl]prop-1-en-1-yl}-3,4-dihydro-1,8-naphthyridin-2(1H)-one]
MIC (MRSA (IHMA #510059)): 1 µg/mL (≈ 2.71 µM) | MIC (S. aureus ATCC 29213): 1 µg/mL (≈ 2.71 µM) | MIC (E. coli (ATCC 25922)): > 128 µg/mL | MIC (MSSA (IHMA #555189)): 1 µg/mL (≈ 2.71 µM) | MIC (E. faecalis (ATCC 29212)): > 128 µg/mL | MIC (C. albicans (ATCC 90028)): > 128 µg/mL | MIC [1]: > 128 µg/mL | MIC [2]: 2 µg/mL (≈ 5.41 µM) | MIC [3]: 4 µg/mL (≈ 10.8 µM) | IC50 [4]: 13 nM | in vivo antibacterial activity (bacterial burden in the thigh of infected mice) [5]: able to protect mice against thigh dissemination | MIC (S. aureus CIP 54.146): 4 µg/mL (≈ 10.8 µM)
